Measured values published in patent US9586931B2 (Merck Sharp & Dohme Corp., priority 2012, dated 2017).

The compounds below were run against T1, recombinant human GST-Syk (Homo sapiens, UniProt P43405) (assay: Homogeneous Time-Resolved Fluorescence (HTRF) assay for the recombinant human Syk enzyme). Details: recombinant human GST-Syk 5 pM, ATP 25 μM, 10-dose titration 10 μM to 0.508 nM; read-out: rhSYK Activity IC50.
T1 construct: purchased Carna Biosciences 08-176
Assay type: biochemical
Summary of the method: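 GST-hSyk fusion protein phosphorylated a peptide for 45 min at room temperature. The reaction was quenched with 2 nM Eu-anti-phosphotyrosine antibody and 70 nM SA-APC in 15 mM Tris pH 7.5, 40 mM EDTA, 0.01% Tween 20. The HTRF signal was read after 30 min.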

SMILES	IC50
Cc1cc(Nc2nccc(C(F)(F)F)n2)cc(-c2cn(CC(O)CO)nn2)c1 (racemic) [Example 5.76, 3-[4-(3-methyl-5-{[4-(trifluoromethyl)pyrimidin-2-yl]amino}phenyl)-1H-1,2,3-triazol-1-yl]propane-1,2-diol]	32.4 nM
Cc1cc(Nc2ncc(F)c(C(F)F)n2)cc(-c2cn(CC3OC(=O)NC3C)nn2)c1 (single isomer, unassigned) [Example 7.37, 5-{[4-(3-{[4-(difluoromethyl)-5-fluoropyrimidin-2-yl]amino}-5-methylphenyl)-1H-1,2,3-triazol-1-yl]methyl}-4-methyl-1,3-oxazolidin-2-one]	15.9 nM
Cc1cc(Nc2cc(C(F)(F)F)ccn2)nc(-c2cn(C3CCCC(O)C3O)nn2)c1 (stereo not drawn) [Example 10.11, 3-[4-(4-methyl-6-{[4-(trifluoromethyl)pyridin-2-yl]amino}pyridin-2-yl)-1H-1,2,3-triazol-1-yl]cyclohexane-1,2-diol]	3.3 nM
Cc1cc(Nc2nccc(C(F)F)n2)cc(-c2cn(C3CCCCC3(C)O)nn2)c1 (single isomer, unassigned) [Example 7.19, 2-[4-(3-{[4-(difluoromethyl)pyrimidin-2-yl]amino}-5-methylphenyl)-1H-1,2,3-triazol-1-yl]-1-methylcyclohexanol]	16.2 nM
Cc1cc(Nc2nccc(C(F)(F)F)n2)cc(-c2cn(CC(O)CF)nn2)c1 (racemic) [Example 5.52, 1-fluoro-3-[4-(3-methyl-5-{[4-(trifluoromethyl)pyrimidin-2-yl]amino}phenyl)-1H-1,2,3-triazol-1-yl]propan-2-ol]	16.4 nM
Cc1cc(Nc2cc(C(F)(F)F)ccn2)nc(-c2cn(CC(=O)N3CCCC3)nn2)c1 [Example 5.87, 4-methyl-6-[1-(2-oxo-2-pyrrolidin-1-ylethyl)-1H-1,2,3-triazol-4-yl]-N-[4-(trifluoromethyl)pyridin-2-yl]pyridin-2-amine]	81.2 nM
Cc1cc(Nc2cc(C(F)(F)F)ccn2)nc(-c2cn(CC(O)CO)nn2)c1 (racemic) [Example 5.95, 3-[4-(4-methyl-6-{[4-(trifluoromethyl)pyridin-2-yl]amino}pyridin-2-yl)-1H-1,2,3-triazol-1-yl]propane-1,2-diol]	7.9 nM
Cc1cc(Nc2cc(C(F)(F)F)ccn2)nc(-c2cn(CC(C)(O)CO)nn2)c1 (stereo not drawn) [Example 10.16, 2-methyl-3-[4-(4-methyl-6-{[4-(trifluoromethyl)pyridin-2-yl]amino}pyridin-2-yl)-1H-1,2,3-triazol-1-yl]propane-1,2-diol]	6.1 nM
Cc1cc(Nc2cc(C(F)(F)F)ccn2)nc(-c2cn(C3CCC(C(N)=O)C(C)(C)C3)nn2)c1 (single isomer, unassigned) [Example 1.5, 2,2-dimethyl-4-[4-(4-methyl-6-{[4-(trifluoromethyl)pyridin-2-yl]amino}pyridin-2-yl)-1H-1,2,3-triazol-1-yl]cyclohexanecarboxamide]	8 nM
Cc1cc(Nc2cc(C(F)(F)F)ccn2)nc(-c2cn(CC3(O)CCC(C(=O)O)C(C)(C)C3)nn2)c1 (single isomer, unassigned) [Example 3.1, (R or S) 4-hydroxy-2,2-dimethyl-4-{[4-(4-methyl-6-{[4-(trifluoromethyl)pyridin-2-yl]amino}pyridin-2-yl)-1H-1,2,3-triazol-1-yl]methyl}cyclohexanecarboxylic acid]	60.7 nM
Cc1cc(Nc2nccc(C(F)(F)F)n2)cc(-c2cn(CC(O)C(F)(F)F)nn2)c1 (racemic) [Example 5.54, 1,1,1-trifluoro-3-[4-(3-methyl-5-{[4-(trifluoromethyl)pyrimidin-2-yl]amino}phenyl)-1H-1,2,3-triazol-1-yl]propan-2-ol]	29.4 nM
COC(=O)CNC(=O)[C@@H](C)n1cc(-c2cc(C)cc(Nc3cc(C(F)(F)F)ccn3)n2)nn1 [Example 1.57, methyl N-{(2R)-2-[4-(4-methyl-6-{[4-(trifluoromethyl)pyridin-2-yl]amino}pyridin-2-yl)-1H-1,2,3-triazol-1-yl]propanoyl}glycinate]	92.8 nM
Cc1cc(Nc2cc(C(F)(F)F)ccn2)nc(-c2cn(C(C)C(=O)N3CCc4c([nH]c5ccccc45)C3)nn2)c1 (stereo not drawn) [Example 1.31, 4-methyl-6-{1-[1-methyl-2-oxo-2-(1,3,4,9-tetrahydro-2H-beta-carbolin-2-yl)ethyl]-1H-1,2,3-triazol-4-yl}-N-[4-(trifluoromethyl)pyridin-2-yl]pyridin-2-amine]	320 nM
Cc1cc(Nc2nccc(C(F)(F)F)n2)cc(-c2cn(CC(=O)NC(C)(C)C)nn2)c1 [Example 5.70, N-tert-butyl-2-[4-(3-methyl-5-{[4-(trifluoromethyl)pyrimidin-2-yl]amino}phenyl)-1H-1,2,3-triazol-1-yl]acetamide]	183 nM
Cc1cc(Nc2cc(C(F)(F)F)ccn2)nc(-c2cn(CC(O)C(=O)O)nn2)c1 (racemic) [Example 5.39, 2-hydroxy-3-[4-(4-methyl-6-{[4-(trifluoromethyl)pyridin-2-yl]amino}pyridin-2-yl)-1H-1,2,3-triazol-1-yl]propanoic acid]	44.9 nM
Cc1cc(Nc2nccc(C(F)(F)F)n2)cc(-c2cn(CCOCCO)nn2)c1 [Example 5.49, 2-{2-[4-(3-methyl-5-{[4-(trifluoromethyl)pyrimidin-2-yl]amino}phenyl)-1H-1,2,3-triazol-1-yl]ethoxy}ethanol]	78.8 nM
Cc1ccnc(Nc2cc(C)cc(-c3cn(CC(O)C(F)(F)F)nn3)n2)c1 (racemic) [Example 5.17, 1,1,1-trifluoro-3-(4-{4-methyl-6-[(4-methylpyridin-2-yl)amino]pyridin-2-yl}-1H-1,2,3-triazol-1-yl)propan-2-ol]	128 nM
Cc1cc(Nc2cc(C(F)(F)F)ccn2)nc(-c2cn(C3CCCCC(O)C3O)nn2)c1 (single isomer, unassigned) [Example 10.5, 3-[4-(4-methyl-6-{[4-(trifluoromethyl)pyridin-2-yl]amino}pyridin-2-yl)-1H-1,2,3-triazol-1-yl]cycloheptane-1,2-diol]	2.6 nM
Cc1cc(Nc2cc(C(F)(F)F)ccn2)nc(-c2cn(Cc3[nH]cnc3C)nn2)c1 [Example 5.106, 4-methyl-6-{1-[(4-methyl-1H-imidazol-5-yl)methyl]-1H-1,2,3-triazol-4-yl}-N-[4-(trifluoromethyl)pyridin-2-yl]pyridin-2-amine]	1.6 nM
CCOc1ccnc(Nc2cc(C)cc(-c3cn(C(C)c4ccc(C(=O)O)cc4)nn3)n2)c1 (stereo not drawn) [Example 2.9, 4-[1-(4-{6-[(4-ethoxypyridin-2-yl)amino]-4-methylpyridin-2-yl}-1H-1,2,3-triazol-1-yl)ethyl]benzoic acid]	58.7 nM
Cc1cc(Nc2cc(C(F)(F)F)ccn2)nc(-c2cn([C@@H](C)C(=O)N3CCC[C@H]3C(=O)O)nn2)c1 [Example 3.13, 1-{(2S)-2-[4-(4-methyl-6-{[4-(trifluoromethyl)pyridin-2-yl]amino}pyridin-2-yl)-1H-1,2,3-triazol-1-yl]propanoyl}proline]	95 nM

Second part, the compound after the results:

IC50	SMILES
1.7 nM	Cc1cc(Nc2nccc(C(F)F)n2)cc(-c2cn(CC3CNCCO3)nn2)c1 (single isomer, unassigned) [Example 22.2, 4-(difluoromethyl)-N-(3-methyl-5-(1-(morpholin-2-ylmethyl)-1H-1,2,3-triazol-4-yl)phenyl) pyrimidin-2-amine]
30.7 nM	Cc1cc(Nc2nccc(C(F)F)n2)cc(-c2cn(C3CCCC(C)(O)C3O)nn2)c1 (single isomer, unassigned) [Example 29.2, 3-(4-(3-((4-(Difluoromethyl)pyrimidin-2-yl)amino)-5-methylphenyl)-1H-1,2,3-triazol-1-yl)-1-methylcyclohexane-1,2-diol]
389 nM	Cc1cc(Nc2cc(C(F)(F)F)ccn2)nc(-c2nncn2C)c1 [Example 16.3, 4-methyl-6-(4-methyl-4H-1,2,4-triazol-3-yl)-N-[4-(trifluoromethyl)pyridin-2-yl]pyridin-2-amine]
50.6 nM	COc1nc(Nc2cc(C)cc(-c3cn(CC(C)(O)C(C)(C)O)nn3)c2)ncc1Cl (stereo not drawn) [Example 21.16, 1-(4-{3-[(5-chloro-4-methoxypyrimidin-2-yl)amino]-5-methylphenyl}-1H-1,2,3-triazol-1-yl)-2,3-dimethylbutane-2,3-diol]
7.3 nM	Cc1cc(Nc2cc(C(F)F)ccn2)nc(-c2cn(CC(C)(O)CC#N)nn2)c1 (single isomer, unassigned) [Example 23.1, 4-(4-(6-((4-(difluoromethyl)pyridin-2-yl)amino)-4-methylpyridin-2-yl)-1H-1,2,3-triazol-1-yl)-3-hydroxy-3-methylbutanenitrile]
2.7 nM	Cc1cc(Nc2cc(C(F)F)ccn2)nc(-c2cn(C(C)C(C)(O)CO)nn2)c1 (single isomer, unassigned) [Example 30.5, 3-[4-(6-{[4-(difluoromethyl)pyridin-2-yl]amino}-4-methylpyridin-2-yl)-1H-1,2,3-triazol-1-yl]-2-methylbutane-1,2-diol]
12.3 nM	Cc1cc(Nc2cc(C(F)F)ccn2)nc(-c2cn(CC3CNC(=O)C3)nn2)c1 (single isomer, unassigned) [Example 24.1, 4-((4-(6-((4-(difluoromethyl)pyridin-2-yl)amino)-4-methylpyridin-2-yl)-1H-1,2,3-triazol-1-yl)methyl)pyrrolidin-2-one]
5.7 nM	Cc1cc(Nc2cc(C(F)F)ccn2)nc(-c2cn(CC3CNCCO3)nn2)c1 (single isomer, unassigned) [Example 26.1, N-(4-(difluoromethyl)pyridin-2-yl)-4-methyl-6-(1-(morpholin-2-ylmethyl)-1H-1,2,3-triazol-4-yl)pyridin-2-amine]
55.4 nM	Cc1cc(Nc2nccc(C(F)(F)F)n2)cc(-c2cn([C@@H]3CCC[C@H](O)C3)nn2)c1 (racemic) [Example 17.1, Racemic cis-3-(4-(3-methyl-5-((4-(trifluoromethyl)pyrimidin-2-yl)amino)phenyl)-1H-1,2,3-triazol-1-yl)cyclohexanol]
